Data on one molecule can be found in US20110009379A1, “INDOLINONE COMPOUND” (ASTELLAS PHARMA INC., priority 2008, published 2011).

In data set [1] the test system is delay of discharging time induced by loperamide in mice. The data set is described as follows: Loperamide induced constipation model (glass bead discharging time). It is filed as in vivo. To be noted: Mus musculus; mice (Slc:ddY, male), 0.3 mg/kg loperamide subcutaneously, compound orally; read-out: ED50 (amount which suppresses 50% of the delay of discharging time induced by loperamide). As to the method: It has been known that loperamide as a μ opioid receptor agonist causes convulsive contraction in intestinal tracts. Thus, a delay in the intestinal transport ability due to loperamide is thought as a constipation IBS model.
Mice (Slc:ddY, five-week old, male) fasted from the previous evening of the experiment. On the day of the experiment, the mice were acclimatized to cages for measurement for 1 hour or more, and 0.3 mg/kg of loperamide was administered subcutaneously. After 30 minutes, a compound to be tested was administered orally, ether anesthesia was applied to the mice immediately thereafter, glass beads having diameter of 3 mm were inserted to 2 cm from anus. The mice were returned to the cages for measurement, and the time from waking to discharging of the glass beads was measured. Furthermore, the compound to be tested was dissolved into 10% DMSO, 10% cremophor, and 80% distillated water.
As a result, it has been recognized that there was a delay in the beads discharging time of the loperamide administration group (vehicle group) in comparison with the loperamide non-administration group (control group).
ED50 values (amount of the compound to be tested which suppresses 50% of the delay of discharging time induced by loperamide) of some of the compounds of the formula (I) are shown in Table 3. In this connection, comparative compound 1 is the same compound as comparative compound 1 in Test Example 4.

A further data set concerns the target T1, human TRPA1 (Homo sapiens, UniProt O75762, K186N/R3C/R58T).
T1 construct: expressed in transfected cells; pcDNA3.1(+) vector)
The data set is described as follows: Measurement of TRPA1 activation activity (intracellular calcium, FLIPR, HEK293 cells stably expressing human TRPA1). The settings on record: change of intracellular calcium concentration. It is filed as cell-based. Summed up: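 HEK293 cells stably expressing cloned human TRPA1 (G418-selected) were loaded with Fluo4-AM for 1 h in HBSS/HEPES pH 7.4 buffer containing probenecid. Intracellular calcium change after compound addition was recorded by FLIPR. EC50 values were calculated from these responses.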
On the technique in general: A change in cytosolic calcium serves as a functional read-out for many receptors and channels.

T1 sequence (O75762 whole entry R3C/R58T/K186N): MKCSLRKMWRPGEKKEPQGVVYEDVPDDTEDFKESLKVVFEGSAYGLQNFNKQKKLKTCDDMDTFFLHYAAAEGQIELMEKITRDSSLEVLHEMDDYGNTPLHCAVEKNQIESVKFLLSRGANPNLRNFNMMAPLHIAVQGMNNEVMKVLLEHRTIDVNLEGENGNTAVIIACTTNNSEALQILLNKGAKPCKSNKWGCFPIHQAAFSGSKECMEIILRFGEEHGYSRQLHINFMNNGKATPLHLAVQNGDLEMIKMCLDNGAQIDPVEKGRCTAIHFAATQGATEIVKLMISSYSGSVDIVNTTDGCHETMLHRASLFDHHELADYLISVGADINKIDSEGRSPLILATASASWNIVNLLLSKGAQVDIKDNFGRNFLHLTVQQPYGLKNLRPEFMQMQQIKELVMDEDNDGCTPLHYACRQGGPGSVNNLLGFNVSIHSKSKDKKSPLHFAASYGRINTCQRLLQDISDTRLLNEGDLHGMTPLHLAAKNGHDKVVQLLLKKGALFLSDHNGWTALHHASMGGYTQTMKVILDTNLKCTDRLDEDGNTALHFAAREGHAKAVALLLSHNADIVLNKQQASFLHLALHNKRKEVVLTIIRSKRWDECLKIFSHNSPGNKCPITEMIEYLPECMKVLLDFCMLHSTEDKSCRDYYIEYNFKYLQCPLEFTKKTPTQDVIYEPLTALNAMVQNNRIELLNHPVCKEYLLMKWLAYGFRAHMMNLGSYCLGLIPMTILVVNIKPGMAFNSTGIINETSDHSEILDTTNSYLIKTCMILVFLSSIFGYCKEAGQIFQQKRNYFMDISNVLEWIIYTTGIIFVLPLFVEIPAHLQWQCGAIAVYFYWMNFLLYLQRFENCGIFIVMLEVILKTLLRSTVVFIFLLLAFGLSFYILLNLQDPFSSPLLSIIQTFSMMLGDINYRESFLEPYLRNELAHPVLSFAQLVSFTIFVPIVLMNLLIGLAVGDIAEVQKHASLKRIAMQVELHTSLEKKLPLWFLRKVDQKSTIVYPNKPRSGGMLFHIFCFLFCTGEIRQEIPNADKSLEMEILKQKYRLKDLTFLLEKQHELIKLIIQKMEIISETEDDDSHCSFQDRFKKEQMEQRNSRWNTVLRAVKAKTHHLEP

For the molecule `O=C(O)/C=C1/C(=O)N(CC2CCCC2)c2c(F)cccc21` [Example 28, (2E)-[1-(cyclopentylmethyl)-7-fluoro-2-oxo-1,2-dihydro-3H-indol-3-ylidene]acetic acid], the melting point – broadly, the temperature of the solid-liquid transition – lay within 151 to 153 °C. In addition, in data set [1], the ED50 – broadly, the midpoint of the dose-response relation – was 0.1 mg/kg. The EC50 – broadly, the concentration needed to bring the measured effect to its halfway point – at human TRPA1 was 510 nM.
